In experiment [1] the test system is Nucleofosmin. Nature of the experiment: P15-regulated protein profile, nuclear extracts of H-125 cells. The conditions noted are these: down-regulated Nucleofosmin, P15 40 minutes. In kind it is cell-based, human.
Experiment [2] deals with Translational controled tumor protein. The experiment is described as above. Particulars: down-regulated Translational controled tumor protein, P15 40 minutes. Format: cell-based, human.
The subject of experiment [3] is Prohibitin. Described as above. The conditions noted are these: up-regulated Prohibitin, P15 40 minutes. Format: cell-based, human.
In experiment [4] the test system is Y-box1 transcription factor. The experiment is described as above. In kind it is cell-based, human. Particulars: down-regulated Y-box1 transcription factor, P15 40 minutes.
Experiment [5] relates to Eritropoietin precursor. Described as above. Format: cell-based, human. Particulars: down-regulated Eritropoietin precursor, P15 40 minutes.
Experiment [6] relates to T-Plastin. The experiment is described as above. Particulars: down-regulated T-Plastin, P15 40 minutes. In kind it is cell-based, human.
Experiment [7] concerns Ubiquitin activated E1 enzyme. Particulars: down-regulated Ubiquitin activated E1 enzyme; H-125 cells, P15 40 minutes. The procedure:
(§1) H-125 cells were treated or not with the P15 peptide ingredient of the pharmaceutical combination described in this invention during 40 minutes. Subsequently, cell monolayers were washed with PBS and cells were scrapped from the surface. […] To analyze the P15-regulated proteins, the respective nuclear protein extracts were alternatively solved by 2D bidimensional gels (pH 4-7) and/or Liquid chromatography (nano HPLC) coupled to Mass spectrometer.
(§2) For this purpose, nuclear protein extracts coming from H-125 cells treated or not with the P15 peptide ingredient were analyzed as previously described in this invention.

In experiment [8] the test system is Tubulin beta-2. Particulars: up-regulated Tubulin beta-2; H-125 cells, P15 40 minutes. As for the experimental part:
as §1, §2

The subject of experiment [9] is S-gluthathione transferase. The conditions noted are these: down-regulated S-gluthathione transferase; H-125 cells, P15 40 minutes. The procedure:
as §1, §2

Experiment [10] deals with Piruvate kinase. The conditions noted are these: down-regulated Piruvate kinase; H-125 cells, P15 40 minutes. The procedure:
as §1, §2

Experiment [11] concerns Tubulin beta-3. Particulars: up-regulated Tubulin beta-3; H-125 cells, P15 40 minutes. As for the experimental part: as §1, §2
Experiment [12] concerns Proteasome activator complex. The conditions noted are these: down-regulated Proteasome activator complex; H-125 cells, P15 40 minutes. As for the experimental part: as §1, §2
In experiment [13] the test system is Glucose-6-phosphate isomerase. The conditions noted are these: down-regulated Glucose-6-phosphate isomerase; H-125 cells, P15 40 minutes. As for the experimental part:
as §1, §2

The test system of experiment [14] is Gliceraldehyde 6-phosphate deshydrogenase. Particulars: down-regulated Gliceraldehyde 6-phosphate deshydrogenase; H-125 cells, P15 40 minutes. As for the experimental part:
as §1, §2

For experiment [15], the system named is Heat Shock Proteins (HSP-27, -70 y -90). Particulars: down-regulated Heat Shock Proteins (HSP-27, -70 y -90); H-125 cells, P15 40 minutes. The procedure:
as §1, §2

Experiment [16] relates to Tubulin alpha-1. Particulars: up-regulated Tubulin alpha-1; H-125 cells, P15 40 minutes. As for the experimental part:
as §1, §2

As for CWMSPRHLGTC [P15], the Inhibition rate in [1] came out at 48; in experiment [2], 4.32; in [4], 3.33; in [5], 120; in experiment [6], 3.34; in [7] it was 2.49. The Inhibition rate in experiment [9] is 4.87; in [10] it was 8.34; in experiment [12], 3.35; in experiment [13], 8.53; in [14] it was 6.62; in [15], 2.5. Moreover, the Activation rate is on record as 2.28 in experiment [3], 2.56 in [8], 3.15 in experiment [11] and 3.23 in experiment [16].
